A short description of this series: Metabolite profiling of pooled whole blood, urine and faeces by LC radiochromatograms with AMS. The class given is in vivo, human. As to the method:
For metabolite profiling in whole blood, urine, and faeces, LC-MS/MS followed by AMS was used. The HPLC system included a 1290 Infinity Sampler, Binary Pump, and thermostat (Agilent, UK). The chromatographic method used an aqueous formic acid (MPA)/ammonium acetate:acetonitrile:methanol (MPB) gradient and a Scherzo SS-C18 HPLC column at a temperature of 40 °C with injection volumes of 50–200 microliters. The gradient was set at 90% MAP and 10% MPB. The mass spectrometer was a Q-Exactive system (Thermo Fisher Scientific, UK) and the AMS a single stage NEC SSAMS-250.
Single whole blood, faeces, and urine pools were created across subjects and radioactive regions representing 10% or more of the circulating radioactivity were analysed (e.g. 10% or more of the circulating radioactivity in whole blood or accounting for 10% or more of the administered radioactivity/dose in urine and faeces), To create the pool, an individual subject AUC pool was prepared, and a constant proportion of each subject pool was taken to create one cross-subject pool. The whole blood sample pool included samples from hours 0–144, the urine sample pool included samples from hours 0–48, and the faeces pool from hours 0–192.
Whole blood, faeces, and urine radiochromatograms were generated for each sample by collecting HPLC fractions at intervals of 2 (30 s) or 4 (15 s) per minute over the run time of 110 min.
Radiochromatograms were generated from AMS data using the LAURA V6 software (LabLogic, Sheffield, UK). Regions of interest were quantified and provisionally identified where possible by assignment of observed peaks in each radiochromatogram to either parent zalunfiban or M1 by retention time matching, with corresponding ^12C-reference standards obtained via LC-UV.
Assignment of parent and metabolites was made by matching retention times with synthesised standards at wavelengths of 210, 230, 254, 270, and 300 nm, using liquid chromatography ultraviolet chromatography (LC-UV).
For extraction of ^14C-zalunfiban from whole blood, weighed aliquots in microcentrifuge tubes were processed with vortex mixing and centrifugation. The supernatant was then harvested and the process repeated with the bullet material in the original tube using acetonitrile and then methanol. The combined aliquots then underwent AMS analysis to determine the extraction recovery. Once optimised, the final combined supernatant was dried under N2 gas at 40 °C and reconstituted with 1 mL methanol:water (20:80, v/v), with vortex mixing and sonication. This was followed by analysis by LC. The radioactivity extraction recovery for whole blood (AUC0–144h) was 54.5%,
For extraction of ^14C-zalunfiban from homogenised faeces, weighed aliquots in microcentrifuge tubes were processed with vortex mixing and centrifugation, and then diluted with acetonitrile, followed by additional mixing, centrifugation, and repeat extraction with methanol:water until optimised. Once optimised, the final combined supernatant was dried under N2 gas at 40 °C and reconstituted with methanol, followed by water, followed by vortex mixing, followed by analysis by LC. The radioactivity extraction recovery for faeces (0–192 h) was 100%.
Urine was not subjected to extraction. An aliquot was dispensed into an LC vial prior to analysis.

Turning to `NCC(=O)Nc1cncc(-c2nn3c(=O)cc(N4CCNCC4)nc3s2)c1` [Zalunfiban, 2-amino-N-{5-[5-oxo-7-(piperazin-1-yl)-5H-[1,3,4]thia-diazolo[3,2-a]pyrimidin-2-yl]pyridin-3-yl}acetamide], where the note is “0–48 h”, the “Percentage of dose excreted in urine” value is reported as 1.31%. The “Percentage of total radioactivity in urine” value (0–48 h cross-participant pooled sample) is 1.59%. Where the note is “0–192 h”, the “Percentage of dose excreted in faeces” value worked out at 0.0239%. For the same compound, the “Percentage of total radioactivity in faeces” value (0–192 h pooled sample) is listed as 0.173%. The “Percentage of total circulating radioactivity in whole blood” value (AUC0–144 cross-pooled whole blood extract) was 46.9%.

(Values after publication PMC13108699, “Mass balance and metabolite profiling of ^14C-Zalunfiban in humans following single-dose subcutaneous administration” (Xenobiotica; the fate of foreign compounds in biological …, 2025).)
